In patent US9944618B2, “Inhibiting neurotransmitter reuptake” (Mayo Foundation for Medical Education and Research, priority 2013, dated 2018):
Like-named read-outs stand apart in the source and are kept apart here.

Tests used:
[1] = pKa of basic centres (Table 1); assay type: physicochemical; conditions: first base, e.g., an aliphatic primary, secondary, or tertiary amine; for pKa: read-out: pKa (Base 1)
CYP2D6 = CYP2D6 (Homo sapiens (Human), UniProt P10635); assay: Cytochrome P450 inhibition assay, recombinant CYP2D6 (MAMC substrate); assay type: in vitro ADME; conditions: recombinant enzyme
Chain of CYP2D6 (P10635 whole entry): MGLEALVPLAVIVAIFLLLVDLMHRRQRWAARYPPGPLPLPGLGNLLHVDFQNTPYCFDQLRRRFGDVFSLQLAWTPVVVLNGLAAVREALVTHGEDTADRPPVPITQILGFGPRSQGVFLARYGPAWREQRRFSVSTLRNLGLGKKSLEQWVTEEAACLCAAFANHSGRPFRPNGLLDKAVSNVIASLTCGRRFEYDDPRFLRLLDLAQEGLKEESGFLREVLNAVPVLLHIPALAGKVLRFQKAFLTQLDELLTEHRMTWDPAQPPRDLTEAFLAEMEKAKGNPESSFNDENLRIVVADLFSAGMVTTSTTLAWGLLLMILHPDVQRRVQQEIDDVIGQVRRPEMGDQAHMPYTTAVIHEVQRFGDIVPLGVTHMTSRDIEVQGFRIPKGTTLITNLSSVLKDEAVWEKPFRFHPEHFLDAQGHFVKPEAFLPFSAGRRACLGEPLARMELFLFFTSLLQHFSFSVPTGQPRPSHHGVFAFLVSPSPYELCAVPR

hERG = hERG (Homo sapiens (Human), UniProt Q12809); assay: Human ERG (hERG) assay, hERG currents in hERG-expressing CHO cells; assay type: cell-based
Chain of hERG (Q12809 whole entry): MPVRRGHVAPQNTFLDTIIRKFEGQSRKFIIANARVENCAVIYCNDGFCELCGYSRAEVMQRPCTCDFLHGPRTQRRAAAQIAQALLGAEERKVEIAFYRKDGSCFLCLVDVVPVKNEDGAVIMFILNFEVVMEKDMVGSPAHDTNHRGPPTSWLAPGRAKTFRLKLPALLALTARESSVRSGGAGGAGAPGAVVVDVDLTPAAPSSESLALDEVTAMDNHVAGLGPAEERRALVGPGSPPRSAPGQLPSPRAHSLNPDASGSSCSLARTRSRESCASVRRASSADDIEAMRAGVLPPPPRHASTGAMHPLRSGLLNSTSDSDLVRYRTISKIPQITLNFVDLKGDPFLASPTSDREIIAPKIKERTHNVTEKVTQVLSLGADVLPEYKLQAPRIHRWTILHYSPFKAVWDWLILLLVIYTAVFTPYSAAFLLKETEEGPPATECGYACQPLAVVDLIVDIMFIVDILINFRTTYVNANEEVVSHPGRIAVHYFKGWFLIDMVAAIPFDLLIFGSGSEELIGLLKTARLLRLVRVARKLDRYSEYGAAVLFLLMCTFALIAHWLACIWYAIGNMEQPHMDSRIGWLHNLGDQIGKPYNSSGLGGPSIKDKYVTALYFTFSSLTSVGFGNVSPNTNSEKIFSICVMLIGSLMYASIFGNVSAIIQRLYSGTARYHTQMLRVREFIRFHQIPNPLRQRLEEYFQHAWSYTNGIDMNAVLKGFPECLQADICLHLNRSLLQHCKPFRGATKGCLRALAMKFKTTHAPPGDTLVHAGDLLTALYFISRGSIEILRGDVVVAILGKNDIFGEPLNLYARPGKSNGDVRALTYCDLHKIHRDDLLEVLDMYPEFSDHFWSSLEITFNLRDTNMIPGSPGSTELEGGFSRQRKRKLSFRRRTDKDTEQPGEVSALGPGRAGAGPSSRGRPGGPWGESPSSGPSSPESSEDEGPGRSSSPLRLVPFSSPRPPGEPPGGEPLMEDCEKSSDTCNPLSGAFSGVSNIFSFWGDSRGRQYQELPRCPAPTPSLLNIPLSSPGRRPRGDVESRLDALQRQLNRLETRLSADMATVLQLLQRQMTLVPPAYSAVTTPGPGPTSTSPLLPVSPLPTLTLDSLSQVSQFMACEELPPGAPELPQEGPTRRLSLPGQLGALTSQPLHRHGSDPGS
From the text: The voltage-dependent potassium channel encoded by the human ether-a-go-go-related gene (hERG) is believed to play a key role in repolarisation of the ventricular cardiac action potential. Changes in its activity, caused either by inherited mutations of the gene sequence or pharmacological modification, can lead to prolongation of action potential duration. This can lead to prolongation of the QT interval recorded in man on an electrocardiogram and to a potentially fatal cardiac arrhythmia known as Torsades de Pointes.
hERG currents were recorded from hERG-expressing CHO cells. The biophysical and pharmacological characterization of the hERG currents in these cells was performed.

[2] = biological target: human norepinephrine transporter (Homo sapiens (Human), UniProt P23975); assay: Human NET (norepinephrine transporter) uptake assay; assay type: cell-based; conditions: read-out: hNET Ki
Chain of human norepinephrine transporter (P23975 whole entry): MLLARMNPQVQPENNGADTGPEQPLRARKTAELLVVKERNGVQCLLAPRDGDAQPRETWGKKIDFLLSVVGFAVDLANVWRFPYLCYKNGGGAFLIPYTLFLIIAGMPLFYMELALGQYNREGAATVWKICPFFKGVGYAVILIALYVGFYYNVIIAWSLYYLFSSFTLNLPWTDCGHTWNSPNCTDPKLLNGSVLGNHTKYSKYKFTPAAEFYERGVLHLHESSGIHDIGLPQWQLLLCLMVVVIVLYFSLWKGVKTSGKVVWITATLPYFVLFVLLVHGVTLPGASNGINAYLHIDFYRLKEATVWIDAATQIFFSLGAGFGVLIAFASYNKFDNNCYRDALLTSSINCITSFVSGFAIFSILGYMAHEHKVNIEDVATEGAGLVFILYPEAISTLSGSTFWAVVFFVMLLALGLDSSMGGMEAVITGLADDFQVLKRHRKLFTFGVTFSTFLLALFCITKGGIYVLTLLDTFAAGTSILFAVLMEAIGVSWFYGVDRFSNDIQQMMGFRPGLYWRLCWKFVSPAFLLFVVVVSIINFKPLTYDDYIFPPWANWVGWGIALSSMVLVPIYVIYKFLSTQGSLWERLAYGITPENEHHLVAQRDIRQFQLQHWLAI
In short: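 HEK293F cells transfected with human NET were thawed, plated at about 60,000 cells/well and held at 37 °C for at least 3 h. Compounds came from 10 mM DMSO stocks, with nomifensine as control, in 1×HBSS/0.02 M HEPES. Uptake was followed with a neurotransmitter transporter dye, dosed as % of vendor reconstitution, in triplicate.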

[3] = biological target: human dopamine transporter (Homo sapiens (Human), UniProt Q01959); assay: Human DAT (dopamine transporter) uptake assay; assay type: cell-based; conditions: read-out: hDAT Ki
Chain of human dopamine transporter (Q01959 whole entry): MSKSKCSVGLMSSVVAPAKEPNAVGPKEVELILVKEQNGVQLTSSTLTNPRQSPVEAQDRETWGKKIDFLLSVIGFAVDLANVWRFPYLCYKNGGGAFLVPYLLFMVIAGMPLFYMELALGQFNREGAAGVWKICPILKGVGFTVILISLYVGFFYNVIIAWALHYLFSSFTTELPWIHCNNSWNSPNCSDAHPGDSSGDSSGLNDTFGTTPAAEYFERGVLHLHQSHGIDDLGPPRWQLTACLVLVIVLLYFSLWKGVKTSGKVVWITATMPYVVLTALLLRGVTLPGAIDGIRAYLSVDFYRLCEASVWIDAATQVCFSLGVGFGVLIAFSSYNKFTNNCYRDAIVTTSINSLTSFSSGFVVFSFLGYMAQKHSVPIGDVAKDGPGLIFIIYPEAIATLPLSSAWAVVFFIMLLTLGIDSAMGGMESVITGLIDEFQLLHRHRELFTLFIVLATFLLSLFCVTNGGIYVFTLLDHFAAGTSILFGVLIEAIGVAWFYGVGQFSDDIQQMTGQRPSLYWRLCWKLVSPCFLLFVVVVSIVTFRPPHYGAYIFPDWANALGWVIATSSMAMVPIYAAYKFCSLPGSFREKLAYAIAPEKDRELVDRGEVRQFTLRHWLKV
In short: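 Uptake inhibition was measured in HEK293F cells transfected with human DAT, plated at ~60,000 cells/well and settled ≥3 h at 37 °C. Compounds came from 10 mM DMSO stocks. Read-out was uptake of a fluorescent neurotransmitter transporter dye in HBSS with 0.02 M HEPES, with dye level given as % of vendor reconstitution; n=3.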

[4] = biological target: human serotonin transporter (Homo sapiens (Human), UniProt P31645); assay: Human SERT (serotonin transporter) uptake assay; assay type: cell-based; conditions: read-out: hSERT Ki
Chain of human serotonin transporter (P31645 whole entry): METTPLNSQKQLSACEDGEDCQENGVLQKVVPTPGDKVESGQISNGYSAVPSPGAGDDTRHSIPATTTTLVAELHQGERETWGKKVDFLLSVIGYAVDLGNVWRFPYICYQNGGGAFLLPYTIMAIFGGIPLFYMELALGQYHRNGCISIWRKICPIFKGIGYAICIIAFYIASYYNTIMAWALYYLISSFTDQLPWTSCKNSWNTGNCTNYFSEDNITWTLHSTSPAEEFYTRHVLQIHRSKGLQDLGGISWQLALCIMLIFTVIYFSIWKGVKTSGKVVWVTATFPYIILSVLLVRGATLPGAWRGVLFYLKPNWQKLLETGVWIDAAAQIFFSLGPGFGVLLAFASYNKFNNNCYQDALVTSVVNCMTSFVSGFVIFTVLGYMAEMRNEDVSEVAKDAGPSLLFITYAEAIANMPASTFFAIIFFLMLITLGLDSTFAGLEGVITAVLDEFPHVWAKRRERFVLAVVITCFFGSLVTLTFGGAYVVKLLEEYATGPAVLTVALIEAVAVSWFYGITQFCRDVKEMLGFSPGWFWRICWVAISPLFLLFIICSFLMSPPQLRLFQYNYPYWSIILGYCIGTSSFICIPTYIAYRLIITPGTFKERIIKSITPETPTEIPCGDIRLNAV
In short: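 HEK293F cells transfected with human SERT, about 60,000 per well, settled for ≥3 h at 37° C before compound addition. Uptake was followed with a fluorescent transporter dye in HBSS with 0.02 M HEPES. Background came from 10 μM fluoxetine, nomifensine was the control, n=3.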

CYP3A4 = CYP3A4 (Homo sapiens (Human), UniProt P08684); assay: Cytochrome P450 inhibition assay, recombinant CYP3A4 (BFC substrate); assay type: in vitro ADME; conditions: recombinant enzyme
Chain of CYP3A4 (P08684 whole entry): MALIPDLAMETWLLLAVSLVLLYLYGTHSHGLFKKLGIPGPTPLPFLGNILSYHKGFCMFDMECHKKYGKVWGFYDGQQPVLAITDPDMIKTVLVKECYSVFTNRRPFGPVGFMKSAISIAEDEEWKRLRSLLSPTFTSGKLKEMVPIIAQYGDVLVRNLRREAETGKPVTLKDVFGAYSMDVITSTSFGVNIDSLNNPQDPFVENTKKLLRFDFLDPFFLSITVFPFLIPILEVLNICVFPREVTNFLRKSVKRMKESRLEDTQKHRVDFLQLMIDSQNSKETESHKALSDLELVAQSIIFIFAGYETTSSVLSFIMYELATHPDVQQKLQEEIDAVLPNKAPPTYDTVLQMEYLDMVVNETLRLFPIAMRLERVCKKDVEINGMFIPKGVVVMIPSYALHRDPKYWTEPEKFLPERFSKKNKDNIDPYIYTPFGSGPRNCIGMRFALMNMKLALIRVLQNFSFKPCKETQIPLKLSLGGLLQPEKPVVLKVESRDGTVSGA
Protocol: Recombinant enzymes, 3A4 and 2D6, generated using the ABL yeast expression system were used. […] The assay mixture also included K2HPO4 (pH 7.4; conc. 0.1 M) and NADPH (conc. 1 mM). The incubation time was 30 minutes, and the reference inhibitor was A-naphthoflavone. For CYP2D6, the enzyme amount was 2 pmol per well, and the substrate (7-methoxy-4-(aminomethyl)-coumarin; MAMC) was used at 20 μM. The assay mixture also included K2HPO4 (pH 7.4; conc. 0.1 M) and NADPH (conc. 0.06 mM). The incubation time was 35 minutes, and the reference inhibitor was quinidine.
Briefly, 0.6 μL of serially diluted compound was added to 75 μL water. 10 μL of diluted compound in water was then added to each assay plate. 20 μL of a K2HPO4, enzyme, and substrate mixture was added. After 10 minutes of room temperature pre-incubation, 10 μL of NADPH was added, and the plates were placed at 37° C. for 30 or 35 minutes depending on the enzyme being tested. After the incubation was complete, 20 μL of 0.1% Tris/ACN was added to the plate. The plate was read on a FluorStar fluorescence plate reader.

[5] = selected reference compounds, CHO cells
[6] = selected reference compounds, HEK293F cells, Cheng-Prusoff

SMILES | pKa [1] | IC50 (CYP2D6) | IC50 (hERG; hERG-expressing CHO cells) | Ki [2] | Ki [3] | Ki [4] | IC50 (CYP3A4) | pKa (Base 1) [1] | IC50 (hERG; [5]) | Ki [2, 6] | Ki [3, 6] | Ki [4, 6]
CNC[C@H](c1ccc2ccccc2c1)[C@H](OCC(=O)N1CC[C@H](O)C1)c1ccccc1 [Compound 19] | 9.6 | 20000 nM | 33000 nM | 1.9 nM | 17 nM | 4.3 nM | 20000 nM | – | – | – | – | –
CNC[C@@H](Cc1ccccc1)c1ccc2ccccc2c1 [Compound 5] | 10.1 | 240 nM | 6500 nM | 1.4 nM | 10.1 nM | 2.8 nM | 18000 nM | – | – | – | – | –
CNC[C@H](c1ccc2ccccc2c1)[C@H](O)c1ccccc1F [Compound 15] | 9.7 | 200 nM | 12000 nM | 1.7 nM | 42.5 nM | 2.4 nM | 20000 nM | – | – | – | – | –
CNC[C@H](c1ccc2ccccc2c1)[C@H](OC)c1ccc2c(c1)OCO2 (racemic) [Compound 136] | 9.7 | 190 nM | 5400 nM | 37.4 nM | 64.5 nM | 15.7 nM | 3400 nM | – | – | – | – | –
CNC[C@H](c1ccc(Cl)c(Cl)c1)[C@H](O)c1ccccc1SC [Compound 156] | 9.4 | 170 nM | 4100 nM | 17.2 nM | 48.5 nM | 22.4 nM | 9500 nM | – | – | – | – | –
CNC[C@H](c1ccc2ccccc2c1)[C@H](OCc1cc(C)no1)c1ccccc1 [Compound 20] | 9.6 | – | 4700 nM | 1.9 nM | 36.1 nM | 3.2 nM | – | – | – | – | – | –
CNC[C@H](c1ccc2ccccc2c1)[C@H](OCC(N)=O)c1ccccc1 [Compound 3] | 9.6 | 1300 nM | 33000 nM | 1.3 nM | 5.2 nM | 0.6 nM | 20000 nM | – | – | – | – | –
CNCC(Cc1ccccc1O)c1ccc2ccccc2c1 (stereo not shown) [Compound 52] | 10 | 900 nM | 12000 nM | 4.1 nM | 26.7 nM | 20.4 nM | 20000 nM | – | – | – | – | –
CNC[C@H](c1ccc2ccccc2c1)[C@H](OCc1noc(C)n1)c1ccccc1 [Compound 22] | 9.6 | 180 nM | 15000 nM | 2 nM | 56.7 nM | 2.1 nM | 15000 nM | – | – | – | – | –
CN(C)CC(C)(c1ccc2ccccc2c1)C(O)c1ccccc1 (stereo not shown) [Compound 86] | 9.2 | 290 nM | 850 nM | 16.7 nM | 9.9 nM | 2.7 nM | 20000 nM | – | – | – | – | –
CNCC(Cc1ccccc1CO)c1ccc2ccccc2c1 (stereo not shown) [Compound 2] | – | 170 nM | 15000 nM | 1 nM | 5.5 nM | 2.5 nM | – | 10 | – | – | – | –
CNC[C@@H](c1ccc2ccccc2c1)[C@@H](O)c1ccccc1F [Compound 78] | 9.7 | 1100 nM | 12000 nM | 14.3 nM | 26.1 nM | 15.3 nM | 20000 nM | – | – | – | – | –
CNC[C@H](c1ccc2ccccc2c1)[C@H](OCC(=O)N(C)C)c1ccccc1 [Compound 33] | 9.6 | 550 nM | 33000 nM | 2.7 nM | 13.2 nM | 1.4 nM | – | – | – | – | – | –
CN1CCO[C@H](c2ccccc2)[C@@H](c2ccc3ccccc3c2)C1 [Compound 77] | 8.2 | 5700 nM | 4500 nM | 12.4 nM | 44.7 nM | 3 nM | – | – | – | – | – | –
CNC[C@H](c1ccc2ccccc2c1)[C@H](OCC(=O)N1CCC1)c1ccccc1 [Compound 30] | 9.6 | – | 29000 nM | 2.4 nM | 14.3 nM | 1 nM | – | – | – | – | – | –
CNC[C@H](C[C@H](O)c1ccccc1)c1ccc2ccccc2c1 [Compound 93] | 10.1 | 1200 nM | 13000 nM | 29.5 nM | 137 nM | 1.1 nM | – | – | – | – | – | –

SMILES | pKa [1] | IC50 (CYP2D6) | IC50 (hERG; hERG-expressing CHO cells) | Ki [2] | Ki [3] | Ki [4] | IC50 (CYP3A4) | pKa (Base 1) [1] | IC50 (hERG; [5]) | Ki [2, 6] | Ki [3, 6] | Ki [4, 6]
CNCC(c1ccc(F)c(Cl)c1)[C@H](O)c1ccccc1 (stereo partly shown) [Compound 73] | 9.3 | 790 nM | 31000 nM | – | – | – | 20000 nM | – | – | – | – | –
CCNC(=O)CO[C@H](c1ccccc1)[C@H](CNC)c1ccc2ccccc2c1 [Compound 6] | 9.6 | 760 nM | 25000 nM | 1.4 nM | 39.2 nM | 0.8 nM | – | – | – | – | – | –
CNCC(Cc1ccccc1CO)c1ccc2ccccc2c1 (stereo not shown) [Compound 90] | 10 | 590 nM | 12000 nM | 22.6 nM | 86.2 nM | 25.4 nM | – | – | – | – | – | –
CNC[C@@H](c1ccc2ccccc2c1)[C@H](O)c1ccccc1 [compound 180] | – | – | – | – | – | – | – | – | 32000 nM | 2.9 nM | 47.5 nM | 14.8 nM
CNC[C@H](c1ccc2ccccc2c1)[C@H](O)c1ccccc1 [compound 173] | – | – | – | – | – | – | – | – | 8800 nM | 0.5 nM | 4.6 nM | 1.2 nM
CN(C)C[C@H](c1ccc2ccccc2c1)[C@H](O)c1ccccc1 [Compound 83] | 9 | – | 4300 nM | 15.7 nM | 46.7 nM | – | – | – | – | – | – | –
c1ccc([C@@H]2OCCNC[C@H]2c2ccc3ccccc3c2)cc1 [Compound 64] | 9.3 | 5100 nM | 20000 nM | 7.2 nM | 9.4 nM | 11.3 nM | – | – | – | – | – | –
CCCNC(=O)CO[C@H](c1ccccc1)[C@H](CNC)c1ccc2ccccc2c1 [Compound 29] | 9.6 | 650 nM | 11000 nM | 2.4 nM | 37.2 nM | 1.1 nM | – | – | – | – | – | –
CCOC(=O)CO[C@H](c1ccccc1)[C@H](CNC)c1ccc2ccccc2c1 [Compound 35] | 9.6 | 320 nM | 13000 nM | 2.8 nM | 70.8 nM | 3.7 nM | – | – | – | – | – | –
CNCC(c1ccc2ccccc2c1)[C@H](CO)c1ccccc1 (single isomer, unassigned) [Compound 25] | 9.9 | 320 nM | 33000 nM | 2.2 nM | 106 nM | 22.7 nM | – | – | – | – | – | –
CNC[C@H](c1ccc2ccccc2c1)[C@H](OCc1cc(C)on1)c1ccccc1 [Compound 18] | 9.6 | 330 nM | 4600 nM | 1.8 nM | 31.9 nM | 0.4 nM | – | – | – | – | – | –
CNCC(Cc1ccccc1OC)c1ccc2ccccc2c1 (stereo not shown) [Compound 132] | – | – | 4700 nM | 10.3 nM | 41.8 nM | 12.4 nM | – | 10.1 | – | – | – | –
CNC[C@H](c1ccc2ccccc2c1)[C@H](OCC(=O)NC)c1ccccc1 [Compound 1] | 9.6 | 1100 nM | 33000 nM | 0.7 nM | 20.7 nM | 1.9 nM | – | – | – | – | – | –
CNC[C@H](c1ccc2ccccc2c1)[C@H](OCC(=O)N1CCCC1)c1ccccc1 [Compound 50] | 9.6 | 800 nM | 17000 nM | 3.8 nM | 36.5 nM | 2.9 nM | – | – | – | – | – | –
CNC[C@@H](c1ccc(Cl)c(Cl)c1)[C@@H](O)c1ccccc1 [Compound 114] | 9.4 | – | 11000 nM | 171 nM | 27 nM | 661 nM | – | – | – | – | – | –
